Measured values reported in publication PMC6639268 (Journal of Virology, 2019).
Read-outs that look alike come from different tables or passages of the source.

What was measured:
[1] = system: EBOV (HIV-1/EBOV-GP) pseudotyped virus; conditions: for IC50: read-out: IC50, Pseudotyped (no detergent)
293T cells = conditions: for Cytotoxicity in single-concentration screen: 25 μM; for CC50: human
EBOV trVLP [2] = system: EBOV trVLP
[3] = system: steroidogenic acute regulatory protein; conditions: cited from earlier work
in vitro [4] = conditions: human, CC50, Pseudotyped
in vitro [5] = conditions: human
[6] = system: EBOV (HIV-1/EBOV-GP) pseudotyped virus; assay: microbe, parasite or virus in culture; conditions: Zaire ebolavirus, HEK-293T
EBOV trVLP [7] = assay: microbe, parasite or virus in culture; conditions: Zaire ebolavirus, HEK-293T, read-out: IC50, trVLP
EBOV-pseudotyped virus = type: cell-based, Zaire ebolavirus
[8] = system: VSV (HIV-1/VSV-G) pseudotyped virus; type: cell-based, vesicular stomatitis virus
[9] = read-out: IC50, Pseudotyped (no detergent)

For `Cc1ccc(C(=O)N/C(=C/c2ccc(-c3ccc(Br)cc3)o2)C(=O)NCCCN(C)C)cc1` [Compound I01], the “Normalized luciferase signal (infectivity signal per cell as a fraction of the maximum)” value [1] was “most activity”, the “SI (CC50/IC50), Pseudotyped” value [1] was 8.2 and the “Cytotoxicity in single-concentration screen” value (293T cells) was “most cytotoxic”. The CC50 (293T cells) was 14.6 ± 5.86 µM, the “SI (CC50/IC50), trVLP” value (EBOV trVLP [2]) was 8.8 and the “Activity on steroidogenic acute regulatory protein” value [3] was “nonspecific inhibitor”. The CC50 (in vitro [4]) was 11 to 15 µM, the CC50 (in vitro [5]) was 9.72 ± 3.23 µM and the IC50 ([6]; read-out: IC50 with Tween 80) was 2.48 ± 1.35 µM. It also gave an IC50 (EBOV trVLP [7]) of 1.1 ± 0.99 µM.
In the case of `CNC1CCN(c2nc3cc(OC)ccc3cc2CNCCc2ccc(OC)cc2)CC1` [Compound S49], the IC50 [1] is reported as 5.06 µM, the “SI (CC50/IC50), trVLP” value (EBOV trVLP [2]) is reported as 5.9 and the CC50 (in vitro [4]) is reported as 66.6 ± 34 µM. The CC50 (in vitro [5]) was 22.4 µM, the IC50 [6, 9] was < 10 µM and the IC50 ([6]; read-out: IC50 with Tween 80) was 17.8 ± 10.6 µM. The IC50 (EBOV trVLP [7]) was 3.81 ± 3.16 µM.
For `CCOC(=O)[C@H]1O[C@@H]1C(=O)N[C@@H](CC(C)C)C(=O)NCCC(C)C` [Compound E64d, E64d], the “Time point up to which maximum inhibition occurred” value (EBOV-pseudotyped virus) was ≤ 80 min.
For `CN1CCCC(CNC(=O)c2cc(NCc3ccccc3F)cc(S(=O)(=O)CNC(C)(C)C)c2)C1` (stereo not drawn) [Compound S58], the “Inhibitory activity against VSV-G-pseudotyped virus entry” value (“Inhibitory activity” for short) [8] was “least average inhibitory activity against VSV-G”, the “Impact on cell viability (cytotoxicity curves)” value (293T cells) was “minimal impact on cell viability” and the “SI (CC50/IC50), trVLP” value (EBOV trVLP [2]) was 25.8. The CC50 (in vitro [5]) was 105 ± 57.1 µM, the IC50 [6, 9] was 19.5 ± 18.9 µM and the IC50 ([6]; read-out: IC50 with Tween 80) was 40.5 ± 24.4 µM. The IC50 (EBOV trVLP [7]) was 4.08 ± 0.88 µM.
In the case of `CN(C)[C@@H]1CCN(CC(c2ccccc2)c2ccccc2)C[C@@H]1CCC(=O)NCc1ccc2c(c1)OCO2` [Compound S31], the “Inhibitory activity” value [8] is reported as “least average inhibitory activity against VSV-G”, the “SI (CC50/IC50), Pseudotyped” value [1] is reported as 8.9 and the IC50 [1] is reported as 4.77 µM. The “SI (CC50/IC50), trVLP” value (EBOV trVLP [2]) was 11.1, the CC50 (in vitro [4]) was 42.4 ± 15.4 µM and the CC50 (in vitro [5]) was 26.7 µM. For the same molecule, the IC50 [6, 9] was < 5 µM, the IC50 ([6]; read-out: IC50 with Tween 80) was 4.68 ± 0.36 µM and the IC50 (EBOV trVLP [7]) was 2.41 µM.
With `CCOc1ccc([C@@H](O)Cn2c(=N)n(CCN3CCCCC3)c3ccccc32)cc1` [Compound S03] the IC50 [1] was 5.79 ± 6.7 µM, the “SI (CC50/IC50), trVLP” value (EBOV trVLP [2]) was 14.3 and the CC50 (in vitro [4]) was 80 ± 45.5 µM. For the same molecule, the CC50 (in vitro [5]) was 57.6 ± 24.2 µM, the IC50 [6, 9] was < 10 µM and the IC50 ([6]; read-out: IC50 with Tween 80) was 5.21 µM. It also gave an IC50 (EBOV trVLP [7]) of 4.04 µM.
For `CN(Cc1cccc(OCCN2CCN(S(=O)(=O)C3CCCCC3Cl)CC2)c1)CC1CCC(=O)N1` (stereo not drawn) [Compound I53], the “SI (CC50/IC50), Pseudotyped” value [1] was 3.0, the “SI (CC50/IC50), trVLP” value (EBOV trVLP [2]) was 3.5 and the CC50 (in vitro [4]) was 110 ± 58 µM. It also gave a CC50 (in vitro [5]) of 47.5 ± 31.8 µM, an IC50 [6, 9] of 36.7 µM and an IC50 ([6]; read-out: IC50 with Tween 80) of 35.3 µM. For the same molecule, the IC50 (EBOV trVLP [7]) was 13.6 ± 12.2 µM.
In the case of `COc1ccc(OC)c(CN2CCC[C@@H](c3ccnc(SCCN4CCCC4)n3)C2)c1` [Compound S36], the “SI (CC50/IC50), Pseudotyped” value [1] is reported as 10.6, the IC50 [1] is reported as 6.29 ± 1.55 µM and the “SI (CC50/IC50), trVLP” value (EBOV trVLP [2]) is reported as 5.2. The CC50 (in vitro [4]) was 66.9 ± 33.3 µM, the CC50 (in vitro [5]) was 16.5 µM and the IC50 [6, 9] was < 10 µM. The IC50 ([6]; read-out: IC50 with Tween 80) was 4.83 ± 1.11 µM and the IC50 (EBOV trVLP [7]) was 3.19 µM.
With `COc1ccc(CN2CCOc3cc(O[C@H]4CCCN(C)C4)cc(-c4ccc(C)s4)c3C2)c(O)c1` [Compound I49] the “Inhibitory activity” value [8] was “least average inhibitory activity against VSV-G”, the “Normalized luciferase signal (infectivity signal per cell as a fraction of the maximum)” value [1] was “most activity” and the “SI (CC50/IC50), Pseudotyped” value [1] was 3.8. The IC50 [1] was 2.91 ± 0.63 µM, the “Cytotoxicity in single-concentration screen” value (293T cells) was “most cytotoxic” and the CC50 (293T cells) was 11 ± 6.46 µM. The CC50 (in vitro [4]) was 11 to 15 µM, the IC50 [6, 9] was < 5 µM and the IC50 ([6]; read-out: IC50 with Tween 80) was 3.12 ± 0.68 µM. For the same molecule, the IC50 (EBOV trVLP [7]) was 2.67 ± 1.49 µM.
In the case of `COc1ccc(CNCc2cc(F)cc(F)c2)cc1OC[C@H](O)CN1CCN(C)CC1` [Compound S29], the “Inhibitory activity” value [8] is reported as “least average inhibitory activity against VSV-G”, the “SI (CC50/IC50), Pseudotyped” value [1] is reported as 4.4 and the IC50 [1] is reported as 25.7 ± 9 µM. The “SI (CC50/IC50), trVLP” value (EBOV trVLP [2]) was 2.9, the IC50 (EBOV trVLP [2]; read-out: IC50, trVLP) was 26.3 ± 17.1 µM and the CC50 (in vitro [4]) was 113 ± 82.2 µM. It also gave a CC50 (in vitro [5]) of 75.1 ± 24.4 µM, an IC50 [6, 9] of ~26 µM and an IC50 ([6]; read-out: IC50 with Tween 80) of 5.03 ± 3.62 µM. The IC50 (EBOV trVLP [7]) was > 20 µM.
For `CCN1CCC[C@@H]1CN(CC1CCN(COC)CC1)C(=O)CCc1ccc(F)cc1` [Compound S42], the “Impact on cell viability (cytotoxicity curves)” value (293T cells) was “minimal impact on cell viability”, the “SI (CC50/IC50), trVLP” value (EBOV trVLP [2]) was 11.2 and the CC50 (in vitro [5]) was 124 ± 71.2 µM. It also gave an IC50 [6, 9] of 11.6 ± 9.95 µM, an IC50 ([6]; read-out: IC50 with Tween 80) of 36.5 ± 16.6 µM and an IC50 (EBOV trVLP [7]) of 11.1 ± 12.9 µM.
With `CC(C)N[C@H]1C[C@@H](C(=O)CN2CCN(c3cccc(C(F)(F)F)c3)CC2)N(Cc2ccccc2)C1` [Compound S33] the “SI (CC50/IC50), Pseudotyped” value [1] was 5.0, the IC50 [1] was 5.85 ± 5.2 µM and the “SI (CC50/IC50), trVLP” value (EBOV trVLP [2]) was 5.7. For the same molecule, the CC50 (in vitro [4]) was 29 ± 12.4 µM, the CC50 (in vitro [5]) was 17.5 µM and the IC50 [6, 9] was < 10 µM. For the same molecule, the IC50 ([6]; read-out: IC50 with Tween 80) was 8.12 ± 2.37 µM and the IC50 (EBOV trVLP [7]) was 3.06 µM.
